Here are results for three molecules from paper PMC8399565, “Fluorescence Cross-Correlation Spectroscopy Yields True Affinity and Binding Kinetics of Plasmodium Lactate Transport Inhibitors” (Pharmaceuticals, 2021).

“Also recorded” adds a separate entry of the source. Like-named read-outs stand apart in the source and are kept apart here.

In test [1] the target is T1, PfFNT G107S-GFP (Plasmodium falciparum, UniProt O77389, G107S).
T1 construct: The DNA of full-length PfFNT from Plasmodium falciparum 3D7 was cloned as a C-terminal GFP fusion; expressed in transfected cells; intact cells for imaging, LMNG-solubilized membranes for FCCS
T1 sequence (O77389 whole entry G107S, the tested form may be a part): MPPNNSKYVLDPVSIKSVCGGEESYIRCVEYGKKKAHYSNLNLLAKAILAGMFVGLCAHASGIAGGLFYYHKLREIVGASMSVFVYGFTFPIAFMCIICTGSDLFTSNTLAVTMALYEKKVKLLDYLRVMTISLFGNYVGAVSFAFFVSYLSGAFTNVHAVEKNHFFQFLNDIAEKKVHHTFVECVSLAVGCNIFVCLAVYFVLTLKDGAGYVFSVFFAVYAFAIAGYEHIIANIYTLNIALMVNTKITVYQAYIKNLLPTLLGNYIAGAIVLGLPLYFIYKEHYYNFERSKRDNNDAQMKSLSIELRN
Briefly: FCCS equilibrium competition binding, PfFNT G107S mutant. As to the method:
Figure 4 Affinity determination of BH296, BH267.meta to PfFNT and PfFNT G107S, and equilibrium saturation binding of BH296 and BH267.meta to PfFNT and PfFNT G107S. […] BH267.meta bound to 100% of the GFP-fusions of wildtype PfFNT. […] (c) Membrane preparations containing 10 nM of PfFNT-GFP were incubated with 70 nM BH296-DY647, and associated complexes competed with free compounds BH267.meta and BH296 to assess their Ki values. […] (e) Membrane preparations containing GFP fusions of mutant PfFNT G107S were mixed with 150 nM of the labeled BH267.meta tracer and competed with BH267.meta and BH296.
The Ki values calculated for the interaction of BH296 and BH267.meta to mutant PfFNT G107S confirm the affinities observed for the direct interaction with labeled inhibitors.
FCCS measurements were conducted in 384-well glass-bottom plates (cat. no PS96B-G175, SWISSCI, Switzerland) using an Insight plate reader (Evotec Technologies, Germany) fitted with a U-Apo300 40x water immersion lens, NA 1.15 (Olympus, Japan). The 488 nm laser line of an argon-ion laser and the light of a 633 nm helium–neon laser were used for excitation. Fluorescence fluctuations were recorded for 8 s with 12 repetitions and analyzed afterward using FCS+plus Analyze 1.1P (Evotec technologies, Version 1.2.5g). FCCS analysis was carried out as described previously. Briefly, for measuring the dissociation constant (KD), a titration series of 12 dilutions was prepared, where the concentration of the lysates obtained from HEK cells expressing GFP-fusions of PfFNT WT and G107S was kept constant, and the concentration of the labeled binding partner (BH296-DY647 and BH267.meta-DY647, respectively) was varied. […] All KD and IC50 values, as well as kinetic parameters, were determined from three independently repeated experiments. The figures show one representative measurement; however, the calculated KD, Ki, kon and koff values are presented as an average of the three measurements ± SD. […]

In test [2] the test system is FNT-type lactate transporters of the remaining four human-pathogenic plasmodia. To be noted: cited from earlier work.
Test [3] has as its target T2, hsMCT4 (Homo sapiens, UniProt O15427).
T2 construct: expressed in transfected cells
T2 sequence (O15427 1-465): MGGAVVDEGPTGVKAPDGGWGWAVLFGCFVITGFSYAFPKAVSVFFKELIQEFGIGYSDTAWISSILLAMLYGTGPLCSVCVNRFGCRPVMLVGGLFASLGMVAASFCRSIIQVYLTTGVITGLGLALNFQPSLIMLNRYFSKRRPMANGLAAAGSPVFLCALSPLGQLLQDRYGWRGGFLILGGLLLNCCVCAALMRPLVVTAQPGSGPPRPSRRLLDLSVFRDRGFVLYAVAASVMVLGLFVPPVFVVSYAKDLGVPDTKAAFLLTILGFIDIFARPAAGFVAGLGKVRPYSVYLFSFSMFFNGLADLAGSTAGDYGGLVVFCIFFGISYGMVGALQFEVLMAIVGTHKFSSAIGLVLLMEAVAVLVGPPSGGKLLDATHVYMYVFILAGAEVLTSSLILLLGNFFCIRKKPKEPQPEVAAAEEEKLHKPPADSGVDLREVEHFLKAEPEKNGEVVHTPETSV
Briefly: Live cell confocal imaging, co-localization with hsMCT4-GFP in HEK cells. The test is classed as cell-based. To be noted: 50 nM BH296-DY647, hsMCT4-GFP in HEK cells. As to the method:
The monocarboxylate transporter hsMCT4 is a human functional homolog of PfFNT, but both proteins show no similarity on the basis of their primary sequence or transport mechanism.
The confocal laser scanning microscopy was performed on an LSM 510 confocal microscope connected to an Axiovert 200M equipped with a C-Apochromat 40×/1.2 W water immersion objective (Carl Zeiss, Germany). The red fluorophore (Dy-647) was excited using a 633 nm helium–neon laser, whereas the green fluorophore (GFP) was excited using a 488 nm argon-ion laser.

What is called Ki is the dissociation constant of the complex between target and ligand, obtained from inhibition or displacement. With `O=C(/C=C(\O)C(F)(F)C(F)(F)F)c1cccnc1` [BH267.meta], the Ki in test [1] (fluorescent probe BH267.meta-DY647 150 nM, competitor up to 10 µM, read-out: Ki Competitor) was determined as 417 ± 16 nM. Moreover, the “concentration blocking FNT-type lactate transporters” value in test [2] is “sub-micromolar”.

In test [1], `O=C(C=C(O)C(F)(F)C(F)(F)F)c1ccc(O)cc1` [BH296, 4,4,5,5,5-pentafluoro-3-hydroxy-1-(4-hydroxyphenyl)pent-2-en-1-one] came in with a Ki greater than 10000 nM. Also, the “Ki Competitor” value in test [1] (fluorescent probe BH267.meta-DY647 150 nM, competitor up to 10 µM) is listed as “did not compete; also recorded: does not interfere”.

On to `CCN1/C(=C/C=C/C=C/C2=[N+](CC)c3ccc(S(=O)(=O)O)cc3C2(C)CCCC(=O)NCCOCCOCCOCCOCCC(=O)NCCCOc2ccc(C(=O)/C=C(\O)C(F)(F)C(F)(F)F)cc2)C(C)(C)c2cc(S(=O)(=O)[O-])ccc21` (centres unmarked) [BH296-DY647], for which, in test [3], the “co-localization on the plasma membrane” value is “did not show any co-localization”.
